Literature values as cited in patent publication US12569475B2, “Method for eradicating helicobacter pylori infection in patients regardless of body mass index” (RedHill Biopharma Ltd., priority 2020, dated 2026).
Values after ≈ are worked out from the molar mass of the structure shown. Where a name gives a salt, the structure may show the parent alone. Read-outs that look alike come from different tables or passages of the source.

## CO[C@H]1/C=C/O[C@@]2(C)Oc3c(C)c(O)c4c(c3C2=O)C2=NC3(CCN(CC(C)C)CC3)NC2=C(NC(=O)/C(C)=C\C=C\[C@H](C)[C@H](O)[C@@H](C)[C@@H](O)[C@@H](C)[C@H](OC(C)=O)[C@@H]1C)C4=O [Rifabutin, (9S,12E,14S,15R,16S,17R,18R,19R,20S,21S,22E,24Z)-6-16,18,20-tetrahydroxy-1′-isobutyl-14-methoxy-7,9,15,17,19,21,25-heptamethylspiro [9,4-(epoxypentadeca[1,11,13]trienimino)-2H-furo[2′,3′:7,8]naphth[1,2-d]imidazole-2,4′-piperidine]-5,10,26-(3H,9H)-trione-16-acetate]
chloroform
  solubility in chloroform: soluble
ethanol
  solubility in ethanol: sparingly soluble
  solubility in methanol: soluble
water
  solubility in water: 190 µg/mL (≈ 224 µM)

## COc1ccc2[nH]c([S+]([O-])Cc3ncc(C)c(OC)c3C)nc2c1 (racemic) [Omeprazole magnesium, 5-methoxy-2-[[(4-methoxy-3,5-dimethyl-2-pyridyl)methyl]sulfinyl]benzimidazole, (RS) magnesium salt (2:1)]
  solubility in methanol: soluble
Water at 25° C.
  solubility in water: 250 µg/mL
